From the supplement of paper PMC13207355
Values joined by “and” are separate entries in the source; they are usually repeats but may differ in a detail not shown here. Equal entries are not always repeated.

Columns and labels:
Conditions in all cases: exposure time: 72 h
E13 [1] = patient-derived glioblastoma stem cells of classical subtype; test: surviving fraction (nuclei count normalised to DMSO); higher = more cells surviving (less toxic)
E21 [2] = patient-derived glioblastoma stem cells of mesenchymal subtype; test: as above
E28 [3] = patient-derived glioblastoma stem cells of classical subtype; test: as above
E31 [4] = patient-derived glioblastoma stem cells of proneural subtype; test: as above
E34 [5] = patient-derived glioblastoma stem cells of proneural subtype; test: as above
E57 [6] = patient-derived glioblastoma stem cells of mesenchymal subtype; test: as above
FT3469 [7] = normal neural stem cell line; test: as above
E13 [8] = test: phenotypic distance (Euclidean, principal components) from DMSO controls (arbitrary units); higher = stronger morphological change
E21 [9] = test: as above
E28 [10] = test: as above
E31 [11] = test: as above
E34 [12] = test: as above
E57 [13] = test: as above
FT3469 [14] = test: as above
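Throughout, for phenotypic distance (Euclidean, principal components) from DMSO controls: cell Painting imaging in 384-well plates, CellProfiler features reduced to at least 20 principal components, Euclidean distance versus same-plate DMSO vehicle wells (0.1% v/v), median over six images per well.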
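Throughout, for surviving fraction (nuclei count normalised to DMSO): nuclei counted by high-content imaging of Hoechst-stained cells in laminin-coated 384-well plates, relative to 0.1% DMSO vehicle wells, with staurosporine as cell-death control.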

Cc1ccc(C(=O)N(CCCN)[C@@H](c2oc3cc(Cl)ccc3c(=O)c2Cc2ccccc2)C(C)C)cc1
Conditions | phenotypic distance | surviving fraction
E13 [1], 4.1 nM | – | 0.451 and 0.49
E13 [1], 12.3 nM | – | 0.443 and 0.489
E13 [1], 37 nM | – | 0.461 and 0.468
E13 [1], 111.1 nM | – | 0.399 and 0.43
E13 [1], 333.3 nM | – | 0.428 and 0.492
E13 [1], 1000 nM | – | 0.445 and 0.399
E13 [8], 4.1 nM | 3.01 and 2.45 | –
E13 [8], 12.3 nM | 3.35 and 2.7 | –
E13 [8], 37 nM | 2.78 | –
E13 [8], 111.1 nM | 3.42 and 3.07 | –
E13 [8], 333.3 nM | 2.78 and 2.91 | –
E13 [8], 1000 nM | 2.81 and 3.02 | –
E13 [8], 3000 nM | 2.53 and 5.91 | –
E21 [2], 4.1 nM | – | 0.198 and 0.164
E21 [2], 12.3 nM | – | 0.186 and 0.161
E21 [2], 37 nM | – | 0.159 and 0.158
E21 [2], 111.1 nM | – | 0.192 and 0.177
E21 [2], 333.3 nM | – | 0.178 and 0.162
E21 [2], 1000 nM | – | 0.21 and 0.182
E21 [9], 4.1 nM | 6.85 and 5.14 | –
E21 [9], 12.3 nM | 6.99 and 5.4 | –
E21 [9], 37 nM | 7.53 and 5.43 | –
E21 [9], 111.1 nM | 5.98 and 4.77 | –
E21 [9], 333.3 nM | 7.67 and 4.85 | –
E21 [9], 1000 nM | 6.93 and 5.54 | –
E21 [9], 3000 nM | 10.1 and 4.79 | –
E28 [3], 4.1 nM | – | 0.424 and 0.34
E28 [3], 12.3 nM | – | 0.335 and 0.367
E28 [3], 37 nM | – | 0.415 and 0.342
E28 [3], 111.1 nM | – | 0.346 and 0.352
E28 [3], 333.3 nM | – | 0.428 and 0.43
E28 [3], 1000 nM | – | 0.328 and 0.336
E28 [10], 4.1 nM | 3.6 and 2.9 | –
E28 [10], 12.3 nM | 3.5 and 3.14 | –
E28 [10], 37 nM | 3.73 and 3.19 | –
E28 [10], 111.1 nM | 3.42 and 3.15 | –
E28 [10], 333.3 nM | 3.17 and 2.59 | –
E28 [10], 1000 nM | 3.49 and 3.39 | –
E31 [4], 4.1 nM | – | 0.165
E31 [4], 12.3 nM | – | 0.184
E31 [4], 37 nM | – | 0.189
E31 [4], 111.1 nM | – | 0.126
E31 [4], 333.3 nM | – | 0.171
E31 [4], 1000 nM | – | 0.174
E31 [4], 3000 nM | – | 0.00446
E31 [11], 4.1 nM | 4.81 | –
E31 [11], 12.3 nM | 3.13 | –
E31 [11], 37 nM | 3.36 | –
E31 [11], 111.1 nM | 3.73 | –
E31 [11], 333.3 nM | 4.39 | –
E31 [11], 1000 nM | 3.79 | –
E31 [11], 3000 nM | 11.9 | –
E34 [5], 4.1 nM | – | 0.598 and 0.534
E34 [5], 12.3 nM | – | 0.575 and 0.607
E34 [5], 37 nM | – | 0.606 and 0.576
E34 [5], 111.1 nM | – | 0.429 and 0.564
E34 [5], 333.3 nM | – | 0.575 and 0.595
E34 [5], 1000 nM | – | 0.549 and 0.594
E34 [12], 4.1 nM | 2.72 and 1.93 | –
E34 [12], 12.3 nM | 2.65 and 1.73 | –
E34 [12], 37 nM | 2.52 and 2.06 | –
E34 [12], 111.1 nM | 2.4 and 1.93 | –
E34 [12], 333.3 nM | 2.3 and 2.24 | –
E34 [12], 1000 nM | 2.35 and 1.99 | –
E57 [6], 4.1 nM | – | 0.0969 and 0.0961
E57 [6], 12.3 nM | – | 0.0867 and 0.0693
E57 [6], 37 nM | – | 0.0872 and 0.0935
E57 [6], 111.1 nM | – | 0.101 and 0.085
E57 [6], 333.3 nM | – | 0.0996 and 0.117
E57 [6], 1000 nM | – | 0.119 and 0.0974
E57 [13], 4.1 nM | 8.08 and 4.22 | –
E57 [13], 12.3 nM | 4.11 and 7.9 | –
E57 [13], 37 nM | 4.48 and 8.38 | –
E57 [13], 111.1 nM | 4.53 and 7.47 | –
E57 [13], 333.3 nM | 4.17 and 7.46 | –
E57 [13], 1000 nM | 4.05 and 7.38 | –
E57 [13], 3000 nM | 3.9 and 9.85 | –
FT3469 [7], 4.1 nM | – | 0.493 and 0.523
FT3469 [7], 12.3 nM | – | 0.562 and 0.558
FT3469 [7], 37 nM | – | 0.606 and 0.566
FT3469 [7], 111.1 nM | – | 0.534 and 0.565
FT3469 [7], 333.3 nM | – | 0.489 and 0.597
FT3469 [7], 1000 nM | – | 0.556 and 0.549
FT3469 [14], 4.1 nM | 2.95 and 2.85 | –
FT3469 [14], 12.3 nM | 2.63 and 2.23 | –
FT3469 [14], 37 nM | 2.78 and 2.25 | –
FT3469 [14], 111.1 nM | 3.02 and 2.28 | –
FT3469 [14], 333.3 nM | 3.08 and 2.17 | –
FT3469 [14], 1000 nM | 2.54 and 2.94 | –

Cc1ccc2c(c1)C1(CCN(CCc3nc(-c4ccccc4)oc3C)CC1)OC(=O)N2
Conditions | phenotypic distance | surviving fraction
E13 [1], 4.1 nM | – | 0.988
E13 [1], 12.3 nM | – | 1.09
E13 [1], 37 nM | – | 1.12
E13 [1], 111.1 nM | – | 1.07
E13 [1], 333.3 nM | – | 1.12
E13 [1], 1000 nM | – | 1.11
E13 [1], 3000 nM | – | 0.943
E13 [8], 4.1 nM | 2.72 | –
E13 [8], 12.3 nM | 2.97 | –
E13 [8], 37 nM | 1.42 | –
E13 [8], 111.1 nM | 0.52 | –
E13 [8], 333.3 nM | 0.547 | –
E13 [8], 1000 nM | 0.819 | –
E13 [8], 3000 nM | 0.711 | –
E21 [2], 4.1 nM | – | 0.932
E21 [2], 12.3 nM | – | 0.961
E21 [2], 37 nM | – | 0.956
E21 [2], 111.1 nM | – | 1.07
E21 [2], 333.3 nM | – | 0.988
E21 [2], 1000 nM | – | 0.923
E21 [2], 3000 nM | – | 0.891
E21 [9], 4.1 nM | 1.42 | –
E21 [9], 12.3 nM | 0.605 | –
E21 [9], 37 nM | 4.58 | –
E21 [9], 111.1 nM | 0.716 | –
E21 [9], 333.3 nM | 0.433 | –
E21 [9], 1000 nM | 0.642 | –
E21 [9], 3000 nM | 1.29 | –
E28 [3], 4.1 nM | – | 1.07
E28 [3], 12.3 nM | – | 0.977
E28 [3], 37 nM | – | 1.11
E28 [3], 111.1 nM | – | 0.99
E28 [3], 333.3 nM | – | 1.11
E28 [3], 1000 nM | – | 0.938
E28 [3], 3000 nM | – | 1.1
E28 [10], 4.1 nM | 0.761 | –
E28 [10], 12.3 nM | 1.33 | –
E28 [10], 37 nM | 0.46 | –
E28 [10], 111.1 nM | 0.636 | –
E28 [10], 333.3 nM | 0.695 | –
E28 [10], 1000 nM | 0.667 | –
E28 [10], 3000 nM | 0.74 | –
E31 [4], 4.1 nM | – | 1.04
E31 [4], 12.3 nM | – | 0.99
E31 [4], 37 nM | – | 1.01
E31 [4], 111.1 nM | – | 0.979
E31 [4], 333.3 nM | – | 1.04
E31 [4], 1000 nM | – | 0.996
E31 [4], 3000 nM | – | 0.955
E31 [11], 4.1 nM | 1.24 | –
E31 [11], 12.3 nM | 0.61 | –
E31 [11], 37 nM | 0.972 | –
E31 [11], 111.1 nM | 0.485 | –
E31 [11], 333.3 nM | 0.605 | –
E31 [11], 1000 nM | 0.491 | –
E31 [11], 3000 nM | 0.687 | –
E34 [5], 4.1 nM | – | 0.851
E34 [5], 12.3 nM | – | 1.03
E34 [5], 37 nM | – | 0.875
E34 [5], 111.1 nM | – | 0.878
E34 [5], 333.3 nM | – | 1.17
E34 [5], 1000 nM | – | 1.07
E34 [5], 3000 nM | – | 1.05
E34 [12], 4.1 nM | 0.895 | –
E34 [12], 12.3 nM | 2 | –
E34 [12], 37 nM | 0.587 | –
E34 [12], 111.1 nM | 0.749 | –
E34 [12], 333.3 nM | 0.998 | –
E34 [12], 1000 nM | 0.765 | –
E34 [12], 3000 nM | 0.942 | –
E57 [6], 4.1 nM | – | 1.05
E57 [6], 12.3 nM | – | 1.03
E57 [6], 37 nM | – | 0.923
E57 [6], 111.1 nM | – | 1.01
E57 [6], 333.3 nM | – | 1.04
E57 [6], 1000 nM | – | 0.967
E57 [6], 3000 nM | – | 1.02
E57 [13], 4.1 nM | 0.955 | –
E57 [13], 12.3 nM | 0.495 | –
E57 [13], 37 nM | 0.64 | –
E57 [13], 111.1 nM | 0.513 | –
E57 [13], 333.3 nM | 0.49 | –
E57 [13], 1000 nM | 0.453 | –
E57 [13], 3000 nM | 0.766 | –
FT3469 [7], 4.1 nM | – | 0.873
FT3469 [7], 12.3 nM | – | 1.15
FT3469 [7], 37 nM | – | 1.04
FT3469 [7], 111.1 nM | – | 0.795
FT3469 [7], 333.3 nM | – | 1.1
FT3469 [7], 1000 nM | – | 1.03
FT3469 [7], 3000 nM | – | 0.991
FT3469 [14], 4.1 nM | 1.5 | –
FT3469 [14], 12.3 nM | 0.887 | –
FT3469 [14], 37 nM | 0.645 | –
FT3469 [14], 111.1 nM | 1.16 | –
FT3469 [14], 333.3 nM | 0.543 | –
FT3469 [14], 1000 nM | 0.575 | –
FT3469 [14], 3000 nM | 0.661 | –
